From US12357556B2, “Composition for improving hair health” (K18, Inc., priority 2018, dated 2025) come the findings set out here.

The structures appear in SMILES notation. Residues, ends and D or L forms follow the SMILES beside them.

The assay deals with T1, natural hair keratin (Hair Keratin KRTHB1 Basic, SEQ ID NO: 7) (Homo sapiens, UniProt Q14533).
T1 sequence (Q14533 304-505): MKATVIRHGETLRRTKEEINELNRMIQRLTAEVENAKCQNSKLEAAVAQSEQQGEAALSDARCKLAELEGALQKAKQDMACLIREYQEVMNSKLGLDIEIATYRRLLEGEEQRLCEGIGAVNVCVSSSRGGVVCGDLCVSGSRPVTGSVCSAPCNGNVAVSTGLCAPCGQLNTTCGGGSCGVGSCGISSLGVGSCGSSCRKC
The assay is described as follows: SPRi binding affinity of peptides to keratin printed on a sensor chip. The following applies: for kon / koff: SPRi, 4° C., kinetic analysis with BIAevaluation 4.1; for kon: read-out: Ka (association rate constant); for koff: read-out: Kd (dissociation rate constant); for Affinity ranking: rank by KD, the lower the KD the more affinity to hair keratin. As for the experimental part:
Affinity of Aquis peptides with natural hair keratin were tested. A third peptide was also tested with the sequence GGVCGPSPPCITT (SEQ ID NO: 6) known as KP developed by Khairpep as a control. KP has been shown in previous patent and publications to penetrate the hair shaft, bind to keratin and improve hair mechanical properties. Various concentrations of Keratin dissolved in water were manually printed onto the bare gold coated (thickness 47 nm) PlexArray Nanocapture Sensor Chip (Plexera Bioscience, Seattle, WA, US) at 40% humidity. Each concentration was printed in replicate, and each spot contained 0.2 microliters of […] solution. The chip was incubated in 80% humidity at 4° C. for overnight, and rinsed with 10×PBST for 10 min, 1×PBST for 10 min, and deionized water twice for 10 min. The chip was then blocked with 5% (w/v) non-fat milk in water overnight, and washed with 10×PBST for 10 min, 1×PBST for 10 min, and deionized water twice for 10 min before being dried under a stream of nitrogen prior to use. SPRi measurements were performed with PlexAray HT (Plexera Bioscience, Seattle, WA, US). Collimated light (660 nm) passes through the coupling prism, reflects off the SPR-active gold surface, and is received by the CCD camera. Buffers and samples were injected by a non-pulsatile piston pump into the 30 uL flowcell that was mounted on the coupling prim. Each measurement cycle contained four steps: washing with PBST running buffer at a constant rate of 2 uL/s to obtain a stable baseline, sample injection at 5 uL/s for binding, surface washing with PBST at 2 uL/s for 300 s, and regeneration with 0.5% (v/v) H3PO4 at 2 uL/s for 300 s. All the measurements were performed at 4° C. The signal changes after binding and washing (in AU) are recorded as the assay value. Selected protein-grafted regions in the SPR images were analyzed, and the average reflectivity variations of the chosen areas were plotted as a function of time. Real-time binding signals were recorded and analyzed by Data Analysis Module (DAM, Plexera Bioscience, Seattle, WA, US). Kinetic analysis was performed using BIAevaluation 4.1 software (Biacore, Inc.).
FIG. 1 to 3 show the binding affinity to keratin for each peptide tested. The lower the KD value is, the more affinity the peptide has to hair keratin.

On to `C[C@@H](O)[C@H](NC(=O)[C@H](CO)NC(=O)[C@H](CS)NC(=O)[C@H](CO)NC(=O)[C@@H]1CCCN1C(=O)[C@H](Cc1ccccc1)NC(=O)CNC(=O)[C@H](CS)NC(=O)[C@@H](N)Cc1ccccc1)C(=O)N[C@@H](CO)C(=O)NCC(=O)O` [Aquis 1, FCGFPSCSTSG] (H-FCGFPSCSTSG-OH; N-terminus and C-terminus assumed), for which the kon was 1310 M⁻¹ s⁻¹, the koff came to 0.000478 s⁻¹ and the Affinity ranking is listed as 1. Moreover, under “comparison of Figures 1-3, in words”, the “affinity to hair keratin compared with the other peptides” value is recorded as “has the most affinity to hair keratin”.
Turning to `CC(C)C[C@H](NC(=O)[C@H](CCC(N)=O)NC(=O)[C@H](CS)NC(=O)[C@H](CS)NC(=O)[C@H](CO)NC(=O)[C@@H]1CCCN1C(=O)[C@@H]1CCCN1C(=O)[C@@H](NC(=O)[C@@H](N)CS)[C@@H](C)O)C(=O)N[C@@H](Cc1c[nH]cn1)C(=O)N[C@@H](Cc1c[nH]cn1)C(=O)N[C@@H](C)C(=O)O` [Aquis 2, CTPPSCCQLHHA] (H-CTPPSCCQLHHA-OH; N-terminus and C-terminus assumed), the kon amounted to 8240 M⁻¹ s⁻¹, the koff worked out at 0.0206 s⁻¹ and the Affinity ranking is reported as 3.
The like results for `CC[C@H](C)[C@H](NC(=O)[C@H](CS)NC(=O)[C@@H]1CCCN1C(=O)[C@@H]1CCCN1C(=O)[C@H](CO)NC(=O)[C@@H]1CCCN1C(=O)CNC(=O)[C@H](CS)NC(=O)[C@@H](NC(=O)CNC(=O)CN)C(C)C)C(=O)N[C@H](C(=O)N[C@H](C(=O)O)[C@@H](C)O)[C@@H](C)O` [KP, GGVCGPSPPCITT, reference compound] (H-GGVCGPSPPCITT-OH; N-terminus and C-terminus assumed) were, in that order, 8500 M⁻¹ s⁻¹, 0.000692 s⁻¹ and 2.
